From BindingDB's records for doi:10.1021/jm960597m (Division of Warner Lambert, 1997) come the findings set out here.

The nature of the experiment: Inhibition of [3H]thymidine uptake by Dopamine receptor D2.

pEC50: −log10 of the molar value.

Compound `c1ccc(N2CCN(CC[C@H]3CC[C@H](c4c[nH]c5ccccc54)CC3)CC2)nc1` [3-{4-[2-(4-Pyridin-2-yl-piperazin-1-yl)-ethyl]-cyclohexyl}-1H-indole] had a pEC50 of 8.55.

As a reminder, the pEC50 is −log10 of the EC50, conventionally taken in molar units. A low value points to a large EC50.
